Assay results as given in paper PMC12775124, “CUL4A-DDB1-DCAF10 is an N-recognin for N-terminally acetylated Src kinases” (Nature Communications, 2026).

Tested on: CUL4A-DDB1-DCAF10
Experiment: In vitro ubiquitination of Lyn-GFP variants by CUL4A-DDB1-DCAF10
Format: biochemical, human
Conditions: for Increase of in vitro ubiquitination under NMT1/2 siRNA: WT E3 complex, IP from NMT1/2 siRNA vs control DLD-1 cells
Description: Lyn^WT-GFP was ubiquitinated by the WT E3 complex in both conditions; however, unlike in vitro ubiquitination with endogenous Lyn (Fig. 5c, d), ubiquitination increased ~6-fold under NMT1/2 siRNA conditions. This is consistent with DCAF10 being limiting and overexpressed Lyn-GFP, accumulating an acetylated fraction available for DCAF10 in vitro. Then, we performed IPs for all Nt variants under NMT1/2 siRNA conditions (Fig. 6d, h–i). […] In vitro ubiquitination assays using untreated cell lysates led to similar results (Supplementary Fig. 7h, i).
Reactions contained E1, UBCH5B (E2), ubiquitin, Mg-ATP in ligation buffer and were incubated with bead-bound substrates, followed by washing and immunoblot detection of ubiquitinated species (anti-ubiquitin), with loading controls (anti-Lyn, -Fyn, -Src or -GFP) (n = 3 independent enzymatic assays). Complete reagent lists, complex preparation, substrate IP conditions, wash buffers, and gel/blot parameters are provided in the Supplementary Methods and Tables.
357 (v/v) glycerol, 2 mM TCEP, supplemented with Protease Inhibitor Cocktail), and lysed
358 by sonication. Lysates were cleared by centrifugation at 28,000 rpm for 45 min at 4 °C
359 using a JA-30.50 rotor (Beckman Coulter, Brea, CA, USA). The cleared and filtered (0.8
360 µm) lysate was applied to 1 mL of Strep-Tactin®XT 4Flow® resin (iba), pre-equilibrated
361 once with wash buffer (100 mM Tris-HCl pH 8.0, 150 mM NaCl, 1 mM EDTA) and lysis
362 buffer. The lysate was incubated on a tube roller for 16 h at 4 °C. After incubation, beads
363 were washed with 50 mL of lysis buffer. Bound proteins were eluted with 10 mL of lysis
364 buffer supplemented with 50 mM biotin, after 15 min incubation on a tube roller at 4 °C.
366 Superdex 200 10/300 or 16/60 SEC column (GE Healthcare, Chicago, IL, USA),
367 preequilibrated in SEC buffer (250 mM Tris pH 7.5, 250 mM NaCl, 10% (v/v) glycerol,
370 Purified proteins were visualized during and after the purification by SDS-gels containing
371 TCE (2,2,2-trichloroethanol)62. The identity of proteins was confirmed by WB and MS.
373 In vitro ubiquitination assays
374 The in vitro ubiquitination assays were performed as previously described8. In brief,
375 E1 (50 nM), UBCH5B (250 nM), ubiquitin (1.5 µg), Mg-ATP (3 mM), ligation buffer,
376 and water were pre-mixed. The premix was divided, and either CUL4A-RBX1-
378 RBX1DDB1 (-DCAF10) (250 nM each) was added. 15 μL of each premix were incubated
379 with substrates (endogenous Lyn or Lyn-GFP constructs) bound to beads for 1 h at 30°C
380 with shaking. Samples were then washed four to five times with a buffer containing 50 […]
382 EDTA, and loaded on a gradient gel (4–15%). Ubiquitination of substrates was assessed
383 by WB using an anti-ubiquitin antibody. Equal substrate loading was evaluated by anti- […]

Lyn^WT-GFP: doxycycline-inducible C-terminally GFP-fused Lyn in DLD-1 Lyn KO cells
In vitro ubiquitination (in words) (Lyn-GFP variants, NMT1/2 siRNA): robustly ubiquitinated by the WT E3 complex
Increase of in vitro ubiquitination under NMT1/2 siRNA: ~ 6 fold
Increase of in vitro ubiquitination under NMT1/2 siRNA (listed as LynWT–GFP): > 5 fold
